Experimental data published in patent publication US20230142274A1 (SIMCERE PHARMACEUTICAL CO., LTD., priority 2020, published 2023).
Like-named read-outs stand apart in the source and are kept apart here. One block for each compound: values may come before it.

What was measured:
CD-1 mouse plasma = assay: Plasma protein binding rate assay (equilibrium dialysis); assay type: in vitro ADME; settings: compound 1 μM, equilibrium dialysis 6 hours at 37° C.
Protocol: 1. CD-1 mouse plasma (BioIVT)
1. Formulation of a buffer solution containing 100 mM sodium phosphate and 150 mM NaCl: An alkaline solution containing Na2HPO4 (14.2 g/L) and NaCl (8.77 g/L) was formulated with ultrapure water. An acidic solution containing NaH2PO4 (12.0 g/L) and NaCl (8.77 g/L) was formulated with ultrapure water. The alkaline solution was titrated with the acidic solution until the pH value was 7.4, thus formulating the buffer solution containing 100 mM sodium phosphate and 150 mM NaCl.
2. Preparation of dialysis membrane: The dialysis membrane was immersed in ultrapure water for 60 minutes to separate the membrane into two pieces, then immersed in 20% ethanol for 20 minutes, and finally immersed in a buffer for dialysis for 20 minutes.
3. Preparation of plasma: Frozen plasma was thawed rapidly at room temperature. Thereafter, the plasma was centrifuged at 3220 g for 10 minutes at 4° C. to remove clots, and the supernatant was collected into a new centrifuge tube. The pH values of plasma were measured and recorded. The plasma with a pH value of 7 to 8 was used.
4. Formulation of compound-containing plasma samples: A 10 mM stock solution of the compound of the present disclosure or the positive control compound was diluted with DMSO to obtain a 200 μM working solution. 3 μl of the 200 μM working solution of the compound was added into 597 μl of mouse plasma to obtain a plasma sample with a final concentration of 1 μM.
5. Steps of equilibrium dialysis: The dialysis device was assembled according to the operating instructions. 120 μL of a plasma sample containing 1 μM compound was added on one side of the dialysis membrane, and an equal volume of dialysate (phosphate buffer solution) was added on the other side. Duplicate samples were set in the experiment. The dialysis plate was sealed and placed in an incubation device where the samples were incubated at 37° C. in an atmosphere containing 5% CO2 for 6 hours with a rotational speed of about 100 rpm. After the incubation was complete, the sealing membrane was removed. 50 μl of samples were respectively aspirated from the buffer solution side and the plasma side of each well and transferred into different wells of a new plate. 50 μl of blank plasma was added into the sample obtained from the phosphate buffer solution side, and an equal volume of blank phosphate buffer solution was added into the plasma sample, followed by the addition of 300 μl of acetonitrile containing the internal standard to precipitate protein. The sample was vortexed for 5 minutes and centrifuged at 3220 g for 30 minutes at 4° C. 100 μl of the supernatant was aspirated and transferred to the sample plate, mixed well with 100 μL of ultrapure water, and used for LC-MS/MS analysis.
The peak areas of the compounds on the buffer solution side and the plasma side were determined. The formula for calculating the plasma protein binding rate of the compound was as follows:
% Free rate=(the ratio of the peak area of the compound to the peak area of the internal standard on the buffer solution side/the ratio of the peak area of the compound to the peak area of the internal standard on the plasma side)×100
% Binding rate=100−% free rate

[1] = Pharmacokinetic experiment in mouse; assay type: in vivo; settings: female CB17-SCID mice; for half-life: mouse, plasma, read-out: Drug Elimination Half-life (converted)
Excerpt: CB17-SCID mice were purchased from Beijing Vital River Laboratory Animal Technology Co., Ltd.
DMSO, HP-β-CD (hydroxypropyl-β-cyclodextrin), PEG400 (polyethylene glycol 400), and Vitamin E TPGS (D-α-tocopherol polyethylene glycol 1000 succinate) were purchased from Sigma.
Six female CB17-SCID mice (20 g to 30 g, aged 4 to 6 weeks) were divided randomly into two groups, with 3 mice in each group. In Group 1, the compound in a vehicle of an aqueous solution containing 5% dimethyl sulfoxide and 95% hydroxypropyl-β-cyclodextrin (10%, w/v) was administered by intravenous injection via tail vein. In Group 2, a corresponding dose of the compound in a vehicle of an aqueous solution containing 30% polyethylene glycol 400 and 70% D-α-tocopherol polyethylene glycol 1000 succinate (10%, w/v) was orally administered. The animals were fed normally with food and water before experiment. The mice in each group underwent intravenous blood collection before administration and at 0.083 h (intravenous injection group only), 0.25 h, 0.5 h, 1 h, 2 h, 4 h, 6 h, 8 h, and 24 h after administration. The collected whole blood samples were placed in K2EDTA anticoagulation tubes and centrifuged for 5 min (4000 rpm, 4° C.) to collect the plasma for testing.
10 μL of the mouse plasma sample was taken, and 150 μL of acetonitrile solvent (containing the internal standard compound) was added to precipitate protein. After the resultant was vortexed for 0.5 min and centrifuged (4700 rpm, 4° C.) for 15 min, the supernatant was subjected to 2-fold dilution with water containing 0.05% (v/v) FA and was then subjected to quantitative measurement in LC-MS/MS system (AB Sciex Triple Quad 6500+). A calibration standard curve was prepared in CB17-SCID mouse plasma along with quality control samples to determine the plasma concentration. As for a 10× diluted sample, 2 μL of sample was taken and 18 μL of blank plasma was added. After being vortexed for 0.5 min, the mixture was added with 300 μL of acetonitrile solvent (containing the internal standard compound) so as to precipitate protein. The rest of the processing steps were the same as those for the undiluted samples.

SMILES: CC(C)OC(=O)Nc1ccc(-c2cnc([C@H]3CC[C@H](NC(=O)OC(C)C)CC3)s2)c(P(C)(C)=O)c1 [Example 1, isopropyl trans-N-[3-dimethylphosphoryl-4-[2-[4-(isopropoxycarbonylamino)cyclohexyl]thiazol-5-yl]phenyl]carbamate]
% Binding Rate (CD-1 mouse plasma): 94% | Drug Exposure ([1]; oral dose 80 mg/kg): 211.819 µg·h/mL | Max. Drug Conc. ([1]; oral dose 80 mg/kg): 14640 ng/mL | Peak Time of Drug Conc. ([1]; oral dose 80 mg/kg): 2.3 h | half-life ([1]; oral dose 80 mg/kg): 3.7 h

SMILES: CC(C)OC(=O)Nc1ccc(-c2cnc([C@H]3CC[C@H](NC(=O)OC(C)C)CC3)s2)c(S(=O)(=O)C(C)C)c1 [Example 2, isopropyl trans-N-[4-[2-[4-(isopropoxycarbonylamino)cyclohexyl]thiazol-5-yl]-3-isopropylsulfonyl-phenyl]carbamate]
% Binding Rate (CD-1 mouse plasma): 99.4%^

SMILES: CC(C)OC(=O)Nc1ccc(-c2cnc(C3CCC(NC(=O)OC(C)C)CC3)s2)c(S(=N)(=O)C(C)C)c1 (stereo not drawn) [Example 3, isopropyl trans-N-[4-[2-[4-(isopropoxycarbonylamino)cyclohexyl]thiazol-5-yl]-3-(isopropylsulfonimidoyl)phenyl]carbamate]
% Binding Rate (CD-1 mouse plasma): 97% | Drug Exposure ([1]; oral dose 80 mg/kg): 271.377 µg·h/mL | Max. Drug Conc. ([1]; oral dose 80 mg/kg): 15438 ng/mL | Peak Time of Drug Conc. ([1]; oral dose 80 mg/kg): 2.8 h | half-life ([1]; oral dose 80 mg/kg): 32 h

SMILES: CC(C)OC(=O)Nc1ccc(-c2cnc(C3CCC(NC(=O)OC(C)C)CC3)s2)c([S+]([O-])C(C)C)c1 (stereo not drawn) [Example 32, isopropyl trans-N-[4-[2-[4-(isopropoxycarbonylamino)cyclohexyl]thiazol-5-yl]-3-isopropylsulfinyl-phenyl]carbamate]
% Binding Rate (CD-1 mouse plasma): 99%

SMILES: CC(C)OC(=O)Nc1ccc(-c2cnc([C@H]3CC[C@H](NC(=O)OC(C)C)CC3)s2)c(S(=O)(=O)C2CC2)c1 [Example 33, isopropyl trans-N-[3-cyclopropylsulfonyl-4-[2-[4-(isopropoxycarbonylamino)cyclohexyl]thiazol-5-yl]phenyl]carbamate]
% Binding Rate (CD-1 mouse plasma): 99%

SMILES: Cc1cc(Nc2ccc(-c3cnc([C@H]4CC[C@H](NC(=O)OC(C)C)CC4)s3)c(P3(=O)CCCC3)c2)n[nH]1 [Example 47, isopropyl trans-N-[4-[5-[4-[(5-methyl-1H-pyrazol-3-yl)amino]-2-(1-oxidophospholan-1-yl)phenyl]thiazol-2-yl]cyclohexyl]carbamate]
% Binding Rate (CD-1 mouse plasma): 99%

SMILES: Cc1cc(Nc2ccc(-c3cnc([C@H]4CC[C@H](NC(=O)OC(C)C)CC4)s3)c(S(=O)(=O)C3CC3)c2)n[nH]1 [Example 48, isopropyl trans-(4-(5-(2-(cyclopropylsulfonyl)-4-((5-methyl-1H-pyrazol-3-yl)amino)phenyl)thiazol-2-yl)cyclohexyl)carbamate]
% Binding Rate (CD-1 mouse plasma): 99% | Drug Exposure ([1]; oral dose 30 mg/kg): 203.497 µg·h/mL | Max. Drug Conc. ([1]; oral dose 30 mg/kg): 17657 ng/mL | Peak Time of Drug Conc. ([1]; oral dose 30 mg/kg): 2 h | half-life ([1]; oral dose 30 mg/kg): 7.6 h

SMILES: Cc1cc(Nc2ccc(-c3cnc([C@H]4CC[C@H](NC(=O)OC(C)C)CC4)s3)c(S(=O)(=O)C3CC3)c2)nn1C [Example 49, isopropyl trans-(4-(5-(2-(cyclopropylsulfonyl)-4-((1,5-dimethyl-1H-pyrazol-3-yl)amino)phenyl)thiazol-2-yl)cyclohexyl)carbamate]
% Binding Rate (CD-1 mouse plasma): 97%

SMILES: Cc1cc(Nc2ccc(-c3cnc(C4CCC(NC(=O)OC(C)C)CC4)s3)c(S(=N)(=O)C3CC3)c2)n[nH]1 (stereo not drawn) [Example 50, isopropyl trans-N-[4-[5-[2-(cyclopropylsulfonimidoyl)-4-]((5-methyl-1H-pyrazol-3-yl)amino]phenyl]thiazol-2-yl]cyclohexyl]carbamate]
% Binding Rate (CD-1 mouse plasma): 96% | Drug Exposure ([1]; oral dose 25 mg/kg): 18.187 µg·h/mL | Max. Drug Conc. ([1]; oral dose 25 mg/kg): 4076 ng/mL | Peak Time of Drug Conc. ([1]; oral dose 25 mg/kg): 1 h | half-life ([1]; oral dose 25 mg/kg): 4.7 h

More lines, now with the values ahead:

% Binding Rate (CD-1 mouse plasma): 99.8%^ | Drug Elimination Half-life ([1]; oral dose 25 mg/kg): 3.5 h | Drug Exposure ([1]; oral dose 25 mg/kg): 125.779 µg·h/mL | Max. Drug Conc. ([1]; oral dose 25 mg/kg): 19257 ng/mL | Peak Time of Drug Conc. ([1]; oral dose 25 mg/kg): 1.3 h
SMILES: COc1ccc(-c2ccc(-c3cnc([C@H]4CC[C@H](NC(=O)OC(C)C)CC4)s3)c([S@@](=N)(=O)C3CC3)c2)cn1 (stereo in doubt) [Example 94]

% Binding Rate (CD-1 mouse plasma): 95% | Drug Exposure ([1]; oral dose 25 mg/kg): 47.683 µg·h/mL | Max. Drug Conc. ([1]; oral dose 25 mg/kg): 6698 ng/mL | Peak Time of Drug Conc. ([1]; oral dose 25 mg/kg): 1 h | half-life ([1]; oral dose 25 mg/kg): 3.1 h
SMILES: CC(C)OC(=O)N[C@H]1CC[C@H](c2ncc(-c3ccc(Nc4cn(C)nn4)cc3S(=N)(=O)C3CC3)s2)CC1 (stereo partly shown) [Example 54]

% Binding Rate (CD-1 mouse plasma): 97%
SMILES: CC(C)OC(=O)N[C@H]1CC[C@H](c2ncc(-c3ccc(Nc4n[nH]c5ccccc45)cc3S(=O)(=O)C3CC3)s2)CC1 [Example 56, isopropyl trans-(4-(5-(4-((1H-indazol-3-yl)amino)-2-(cyclopropylsulfonyl)phenyl)thiazol-2-yl)cyclohexyl)carbamate]

% Binding Rate (CD-1 mouse plasma): 99.9%^
SMILES: CC(C)OC(=O)N[C@H]1CC[C@H](c2ncc(-c3ccc(Nc4cc5ccccn5n4)cc3S(=O)(=O)C3CC3)s2)CC1 [Example 57, isopropyl trans-(4-(5-(2-(cyclopropylsulfonyl)-4-(pyrazolo[1,5-a]pyridin-2-ylamino)phenyl)thiazol-2-yl)cyclohexyl)carbamate]

% Binding Rate (CD-1 mouse plasma): 97%
SMILES: CC(C)OC(=O)N[C@H]1CC[C@H](c2ncc(-c3ccc(NC(=O)NCc4ccccc4)cc3S(=N)(=O)C3CC3)s2)CC1 (stereo partly drawn) [Example 65, isopropyl trans-(4-(5-(4-(3-benzylureido)-2-(cyclopropanesulfonimidoyl)phenyl)thiazol-2-yl)cyclohexyl)carbamate]

% Binding Rate (CD-1 mouse plasma): 99%
SMILES: Cc1cc(Nc2ccc(-c3cnc([C@H]4CC[C@H](NC(=O)OC(C)C)CC4)s3)c(S(=N)(=O)C3CC3)c2)n(C)n1 (stereo partly drawn) [Example 98, isopropyl trans-(4-(5-(2-(cyclopropanesulfonimidoyl)-4-((1,3-dimethyl-1H-pyrazol-5-yl)amino)phenyl)thiazol-2-yl)cyclohexyl)carbamate]

% Binding Rate (CD-1 mouse plasma): 98%
SMILES: Cc1cc(Nc2ccc(-c3cnc([C@H]4CC[C@H](NC(=O)OC(C)C)CC4)s3)c(P3(=O)CCC3)c2)n[nH]1 [Example 103, isopropyl trans-(4-(5-(4-((5-methyl-1H-pyrazol-3-yl)amino)-2-(1-oxophosphetan-1-yl)phenyl)thiazol-2-yl)cyclohexyl)carbamate]
